Reference: US20040261139A1, “Androgen receptor knock-out transgenic animals” (priority 2001, published 2004)
Like-named read-outs stand apart in the source and are kept apart here.

How the values were obtained:
[1] = tested on: p21 (WAF1/CIP1) gene; assay: Endogenous p21 (WAF1/CIP1) gene expression in PC-3 (AR2) cells stably transfected with AR; type: cell-based
Method: (§3) A. MCF-7 cells were transfected using Superfect (Qiagen) with 2 μg of pSG5-AR with or without 4 μg of BRCA1, as indicated. Cells were cultured in the presence of 10 nM DHT or vehicle, as indicated. B. PC-3(AR2) cells were transfected under the same conditions as the MCF-7 cells in A. except that AR was not transfected. […] PC-3(AR2) cells transfected with BRCA1 were cultured in the presence of vehicle, 10 nM DHT, or 1 μM hydroxyflutamide (HF).
(§4) The ability of AR and BRCA1 to regulate the endogenous p21 (WAF1/CIP1) gene in MCF-7 breast cancer cells was examined.

[2] = tested on: ZR-ARKO derived tumors; conditions: ovarectomized nude mice, estradiol and DHT pellets; expected result
Method: (§1) After the initial in vitro characterization of the ARKO cells, mouse xenograft experiments are performed. The ARKO cells are subcutaneously injected into ovarectomized nude mice and the parental cell lines serve as xenograft controls. This experiment allows for the comparison of AR positive and AR negative breast carcinoma cells in animals that carry a functional AR gene without the potential confounding effects of using differently derived tumor cell lines. Tumor growth rate is compared in ARKO and parental cell line recipients in response to estradiol treatment, DHT treatment, or combined administration of estradiol and DHT. […] In addition to growth rate, tumors are examined histologically to determine the morphology and degree of vascularization between ARKO cell tumors and tumors generated by the parental cell lines under the different hormonal regimes.
(§2) Female homozygous nude mice (obtained from the Jackson Laboratory) are ovarectomized. […] Ovarectomized mice are also implanted with 1.5 mg 90 day release progesterone hormonal tablets. Only the ovarian cancer based cell lines will be examined in progesterone treated animals. Animals will be subcutaneously injected with […] of the ARKO or parental cells at the time of hormonal implant Hormonal pellets will be replaced as required.

[3] = tested on: ZR-75-1 tumors; conditions: ovarectomized nude mice, estradiol and DHT pellets; expected result
Method: as §1, §2

[4] = tested on: p21 (WAF1/CIP1) gene; conditions: 10 nM DHT, MCF-7 cells transfected with AR
Method: as §3, §4

[5] = target: T1, AR (Homo sapiens, UniProt P10275); assay: AR transcriptional activity, MMTV-CAT reporter gene in DU145 cells transfected with AR with ARA70 or empty vector; type: cell-based; conditions: 10^-10 to 10^-6 M, presence or absence of ARA70
T1 construct: expressed in transfected cells; host or cells: DU145
T1 sequence (P10275 1-920): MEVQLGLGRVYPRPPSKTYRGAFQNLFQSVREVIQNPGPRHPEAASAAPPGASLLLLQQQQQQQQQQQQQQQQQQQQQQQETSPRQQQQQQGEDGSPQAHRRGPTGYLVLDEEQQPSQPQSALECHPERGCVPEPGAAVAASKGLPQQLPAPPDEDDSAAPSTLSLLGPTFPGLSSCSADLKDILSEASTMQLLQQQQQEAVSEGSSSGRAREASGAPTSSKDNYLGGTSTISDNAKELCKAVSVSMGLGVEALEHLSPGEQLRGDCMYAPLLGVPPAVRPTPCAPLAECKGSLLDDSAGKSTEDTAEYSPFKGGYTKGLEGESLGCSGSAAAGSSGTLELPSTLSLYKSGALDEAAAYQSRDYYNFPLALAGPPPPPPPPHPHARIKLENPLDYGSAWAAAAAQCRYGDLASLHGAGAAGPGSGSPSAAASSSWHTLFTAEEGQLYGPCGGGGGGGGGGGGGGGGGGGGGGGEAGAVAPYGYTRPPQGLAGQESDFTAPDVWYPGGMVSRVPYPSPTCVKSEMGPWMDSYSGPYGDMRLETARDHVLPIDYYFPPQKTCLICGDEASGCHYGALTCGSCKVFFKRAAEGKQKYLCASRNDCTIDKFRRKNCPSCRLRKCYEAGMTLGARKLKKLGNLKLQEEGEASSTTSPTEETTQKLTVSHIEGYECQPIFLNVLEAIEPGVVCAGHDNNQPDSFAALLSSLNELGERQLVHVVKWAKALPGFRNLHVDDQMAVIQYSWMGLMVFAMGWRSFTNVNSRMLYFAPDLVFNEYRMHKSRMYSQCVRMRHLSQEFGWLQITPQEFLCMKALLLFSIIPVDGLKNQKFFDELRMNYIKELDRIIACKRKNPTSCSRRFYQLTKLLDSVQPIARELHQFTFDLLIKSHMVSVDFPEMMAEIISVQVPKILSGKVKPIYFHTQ
From the text: The DHT treatments were taken as the positive control. Data represents an average of three independent experiments.
PSA is an androgen target gene that is not transcriptionally activated by the ER (58).

CC(C)(O)C(=O)Nc1ccc([N+](=O)[O-])c(C(F)(F)F)c1 [hydroxyflutamide]
effect on DHT induction of p21 (WAF1/CIP1) ([1]; 1 μM hydroxyflutamide, PC-3 (AR2) cells transfected with BRCA1): blocks the DHT induction

C[C@]12CCC(=O)C[C@@H]1CC[C@@H]1[C@@H]2CC[C@]2(C)[C@@H](O)CC[C@@H]12 [DHT, 5α-dihydrotestosterone]
endogenous p21 (WAF1/CIP1) gene expression ([1]; 10 nM DHT, PC-3 (AR2) cells): confirmed | estradiol induced proliferation of ZR-ARKO derived tumors in the presence of DHT [2]: expected to continue estradiol induced proliferation | estradiol-mediated proliferation of ZR-75-1 tumors [3]: expected to inhibit | endogenous p21 (WAF1/CIP1) gene expression [4]: induced endogenous p21 (WAF1/CIP1) gene expression

C[C@]12CC[C@@H]3c4ccc(O)cc4C[C@@H](CCCCCCCCC[S+]([O-])CCCC(F)(F)C(F)(F)F)[C@H]3[C@@H]1CC[C@@H]2O (stereo partly drawn) [ICI182, 780]
induction of AR mediated transcription [5]: unable to induce AR mediated transcription
